US20190298743A1, “TREATMENT OF PAIN” (Takeda Pharmaceutical Company Limited, priority 2016, published 2019)

Tests used:
PAR2 [1] = experiment: BRET receptor trafficking, PAR2-RLuc8 with plasma membrane marker RIT-venus in HEK293 cells; assay type: cell-based
Description: (§1) Bret studies of receptor trafficking were conducted to quantify PAR2 internalisation (RIT-venus) and trafficking to early endosomes (Rab5a-venus) upon stimulation with different agonists.
(§2) After achieving ˜50% confluency within 10 cm dishes HEK293 cells were transiently transfected with 1 μg PAR2-RLuc8 and 4 μg of either RIT-venus or Rab5a-venus using PEI as a transfection agent. 24 hours post transfection, cells were seeded into poly-D-lysine coated 96-well isoplates. […] When used endocytic inhibitors were diluted in 1×HBSS+1% dimethyl sulfoxide (DMSO). Following the replacement of culture media cells were allowed to equilibrate at 37° C. for 30 minutes before the addition of colenterazine H [5 μM]. After a further 5 minute incubation BRET was assessed using a LUMIstar Omega microplate reader (BMG LabTech, Offenburg, Germany), with luminescence being read at 535 nm and 475 nm. A 4 minute baseline was obtained before the addition of vehicle (1×HBSS+/−1% DMSO) or protease, measurements were then continued for a further 30 minutes. BRET ratios were calculated using LUMIstar MARS analysis software and then corrected to baseline and vehicle treatments in Microsoft Excel 2013.

PAR2 [2] = experiment: BRET receptor trafficking, PAR2-RLuc8 with early endosomal marker Rab5a-venus in HEK293 cells; assay type: cell-based
Description: as §1, §2

PAR2 [3] = experiment: Whole population FRET with cytosolic ERK sensor CytoEKAR in HEK293 cells; assay type: cell-based
Description: (§3) Förster Resonance Energy Transfer (FRET) was used to characterise PAR2 mediated ERK within different subcellular compartments upon stimulation with different agonists. The assays were repeated after employing pharmacological and genetic approaches shown to abolish receptor internalisation to assess the role of internalisation in generating compartmentalised signals.
(§4) After achieving ˜50% confluency within 10 cm dishes HEK293 cells were transfected with 2-5 μg of PAR2 with N-terminal HA epitope tag (PAR2-HA) and 2-5 μg of desired FRET biosensor, using PEI as a transfection agent. 24 hours after transfection, cells were seeded into poly-D-lysine coated black 96 well isoplates. FRET was assessed 48 hours after cell plating, following overnight serum restriction. […] When used endocytic inhibitors were diluted in 1×HBSS+1% dimethyl sulfoxide (DMSO). Following the replacement of culture media cells were allowed to equilibrate at 37° C. for 30 minutes. FRET was then determined using a PHERAstar FS microplate reader (BMG LabTech, Offenburg, Germany), cells were sequentially excited at 430 nm with emissions being read at 550 nm and 490 nm. A 4 minute baseline was obtained before the addition of vehicle (1×HBSS+/−1% DMSO), protease or 1 μM PDBu (serving as a positive control). Measurements were then continued every minute for a further 30 minutes. FRET ratios were then calculated and corrected to baseline and vehicle treatments in Microsoft Excel 2013.

PAR2 [4] = experiment: Whole population FRET with nuclear ERK sensor NucEKAR in HEK293 cells; assay type: cell-based
Description: as §3
as §4, with “Measurements were then continued every minute for a further 30 minutes.” left out

DRG neurons = experiment: Perforated patch-clamp excitability (rheobase) of isolated DRG neurons; assay type: cell-based, mice; conditions: 0 min and 30 min after washing
Description: To assess the effects of proteases on excitability of nociceptors, DRG neurons were preincubated with trypsin, cathepsin S, elastase or vehicle (control), washed, and rheobase and action potential discharge at a current of twice rheobase were measured at 0 min or 30 min after washing.
DRG (T9-T13) from C57BL/6 mice were digested by incubation in collagenase (1 mg/ml, Worthington Biochemical, Lakewood, N.J.) and dispase (4 mg/ml, Roche Life Science, Indianapolis, Ind.) for 10 min at 37° C., and were dispersed by trituration with a fire-polished Pasteur pipette. Cells were plated onto coverslips coated with laminin (0.017 mg/ml) and poly-D-lysine (2 mg/ml) in 24-well plates. Neurons were cultured in F12 medium (Cat N668, Lot RNBD5333, Sigma-Aldrich, St Louis, Mo. USA) containing 10% fetal calf serum, with penicillin and streptomycin and maintained at 37° C. in a humidified atmosphere of 95% air and 5% CO2 until retrieval (16 h) for electrophysiological studies.
Neuronal excitability was assessed by perforated patch-clamp recordings with amphotericin B (240 μg/ml) from small diameter neurons (<30 pF capacitance) in current clamp mode at room temperature. Only neurons with resting membrane potentials more negative than −40 mV were analyzed. Changes in excitability were quantified by measuring rheobase (minimum current to fire action potential) and numbers of action potentials discharged at twice rheobase. Recordings were made using Axopatch 200B amplifiers, digitized by Digidata 1322A and stored and processed using pClamp 10.1 software (Molecular Devices, Sunnyvale, Calif.). The recording chamber was continuously perfused with external solution at 2 ml/min. External solution was (mM): 140 NaCl, 5 KCl, 10 HEPES, 10 D-glucose, 1 MgCl2, 2 CaCl2; pH to 7.4 with 3 M NaOH. Pipette solution was (mM): 110 K-gluconate, 30 KCl, 10 HEPES, 1 MgCl2, 2 CaCl2; pH 7.25 with 1 M KOH.
DRG neurons were pre-incubated with vehicle (control) or proteases using conditions that we have reported to cause robust hyperexcitability: trypsin (50 nM, 10 min), elastase (10 U/ml, 390 nM, 30 min), Cat-S (500 nM, 60 min). Neurons were then washed and maintained in protease-free F12 medium. Neuronal excitability was assessed 0 or 30 min after washing. In some experiments, neurons were incubated with vehicle (0.3% DMSO), Dyngo4a (30 μM) or PitStop2 (15 μM) for 30 min before and during incubation with proteases.
Results are expressed as mean±SE. Two way ANOVA and post hoc Tukey's tests were used to analyze the data.

[5] = Protease-evoked mechanical hyperalgesia, von Frey paw withdrawal; assay type: in vivo, mice; conditions: ipsilateral paw
Description: (§5) Immediately before experiments the mice were acclimatized to the experimental apparatus, room and investigator for 1-2 h on 2 successive days. Mechanical nociceptive responses were evaluated by paw withdrawal to stimulation of the plantar surface of the hind-paw with calibrated von Frey filaments. von Frey scores were measured in triplicate to establish a baseline for each animal on the day before experiments. Paw edema was estimated by measuring the thickness of the hindpaw using digital calipers before and after treatments. Mice were […] with 5% isoflurane for intraplantar injections. Dyngo4a (50 μM), PitStop2 (50 μM) or vehicle (0.2% DMSO in 0.9% NaCl) (all 10 μl) were injected into the left hindpaw. After 30 min, trypsin (10 nM), Cat-S (2.5 μM) or elastase (30 U) (all 10 μl) were injected into the same left hindpaw. von Frey scores (left and right paws) and paw thickness (left paw) were measured hourly for up to 4 h after protease injection. Investigators were blinded to the test agents.

[6] = Protease-evoked paw edema, hindpaw thickness; assay type: in vivo, mice; conditions: ipsilateral paw
Description: as §5

PAR2 [7] = experiment: BRET proximity of PAR2 to KRas (plasma membrane) and Rab5a (endosomes) in HEK cells; assay type: cell-based; conditions: HEK cells
Description: (§6) The contribution of endocytosis of protease-activated receptor-2 (PAR2) was evaluated for generation of signals in subcellular compartments that mediate protease-evoked sensitization of nociceptors. Bioluminescence resonance energy transfer (BRET) was used to assess the proximity of PAR2 to resident proteins of the plasma membrane (KRas) and endosomes (Rab5a) in HEK cells. […] Förster resonance energy transfer (FRET) biosensors targeted to the plasma membrane, cytosol or nucleus were used to examine the capacity of proteases to generate signals in subcellular compartments of HEK cells and rat dorsal root ganglia neurons. […] Dynamin inhibitor Dyngo4a, Clathrin inhibitor Pitstop2 and dominant negative β-arrestin inhibited trypsin-evoked endocytosis of PAR2, and prevented trypsin-evoked activation of cytosolic cAMP and PKC and nuclear ERK. […] To examine the link between PAR2 endocytosis, compartmentalized signaling and nociceptor sensitization, perforated patch clamp recordings were made from mouse dorsal root ganglia neurons. […] The effects of proteases on excitability were blocked by the PAR2 antagonist GB88. Thus, canonical and biased proteases sensitize nociceptors by distinct mechanisms. For canonical agonists, PAR2 endocytosis generates compartmentalized signals subcellular compartments that underlie sustained excitability of nociceptive neurons. Inhibiting endosomal signaling of PAR2 may provide a novel method of treating protease-evoked pain.

PAR2 [8] = experiment: FRET biosensors for compartmentalised cAMP, PKC and ERK signals in HEK cells and rat dorsal root ganglia neurons; assay type: cell-based
Description: as §6

Substance: trypsin
- EC50 (PAR2 [1]; RIT-venus, CRC from AUC data, read-out: EC50 of trypsin induced internalisation of PAR2, plasma membrane marker): ~2.8 nM
- Change in BRET between PAR2 and plasma membrane marker upon agonist stimulation (PAR2 [1]; trypsin 10 nM): time dependent decrease in BRET
- EC50 (PAR2 [2]; Rab5a-venus, CRC from AUC data, read-out: EC50 of trypsin induced internalisation of PAR2, early endosomal marker): ~2.8 nM
- Change in BRET between PAR2 and early endosomal marker upon agonist stimulation (PAR2 [2]; trypsin 10 nM): increase in BRET
- Ability of agonist to produce ERK signals within the cytoplasm (PAR2 [3]): able to produce ERK signals
- Ability of agonist to produce ERK signals within the nucleus (PAR2 [4]): able to produce ERK signals
- Effect of protease on excitability (rheobase) of DRG neurons (DRG neurons): immediate increase in excitability
- Mechanical hyperalgesia after intraplantar injection of protease [5]: caused mechanical hyperalgesia of the ipsilateral paw that was sustained for at least 4 h
- Edema after intraplantar injection of protease [6]: edema of the ipsilateral paw that was maximal after 4 h
- PAR2 endocytosis induced by agonist (PAR2 [7]): increases BRET between PAR2 and Rab5a and decreases BRET between PAR2 and KRas
- Signals generated by protease in subcellular compartments (PAR2 [8]): activated cAMP and protein kinase C (PKC) at the plasma membrane and in the cytosol, and extracellular signal regulate kinase (ERK) in the nucleus and cytosol
